In series [1] the test system is Mus musculus. Kind of series: Antiinflammatory activity in CD-1 mouse peritonitis model assessed as reduction in neutrophil infiltration at 10 mg/kg, ip administered 30 mins prior to zymosan-challenge measured after 4 hrs by spectrophotometry relative to vehicle-treated control. Type of series: functional. The following applies: CD-1, ip, route intraperitoneal.
Series [2] deals with T1, Polyunsaturated fatty acid lipoxygenase ALOX12 (Homo sapiens) (UniProt P18054).
T1 sequence (whole entry): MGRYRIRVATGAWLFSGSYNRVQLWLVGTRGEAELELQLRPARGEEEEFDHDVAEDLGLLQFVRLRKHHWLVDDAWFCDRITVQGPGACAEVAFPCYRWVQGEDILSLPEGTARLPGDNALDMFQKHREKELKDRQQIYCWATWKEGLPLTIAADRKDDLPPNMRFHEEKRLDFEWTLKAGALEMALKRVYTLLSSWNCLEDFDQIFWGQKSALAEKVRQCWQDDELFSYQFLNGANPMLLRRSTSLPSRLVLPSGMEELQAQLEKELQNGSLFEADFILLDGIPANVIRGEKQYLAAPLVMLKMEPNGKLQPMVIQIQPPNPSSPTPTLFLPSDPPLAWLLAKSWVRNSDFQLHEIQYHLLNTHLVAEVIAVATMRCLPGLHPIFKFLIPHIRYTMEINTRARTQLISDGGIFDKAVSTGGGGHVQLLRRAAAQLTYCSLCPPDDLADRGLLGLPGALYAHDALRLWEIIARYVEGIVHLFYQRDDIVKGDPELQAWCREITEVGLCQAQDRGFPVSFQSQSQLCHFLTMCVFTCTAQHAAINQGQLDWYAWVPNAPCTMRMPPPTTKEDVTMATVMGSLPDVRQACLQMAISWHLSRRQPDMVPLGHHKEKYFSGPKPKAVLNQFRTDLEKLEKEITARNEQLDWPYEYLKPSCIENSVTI
Briefly: Inhibition of 12-lipoxygenase in human polymorphonuclear leukocytes using arachidonic acid as substrate assessed as remaining activity at 10 uM incubated 15 mins prior to substrate addition measured after 10 mins by HPLC analysis relative to control. Type of series: cell-based.

Series [3] has as its system Mus musculus. Kind of series: Reduction of PGE2 biosynthesis in CD-1 mouse peritonitis model at 10 mg/kg, ip administered 30 mins prior to zymosan-challenge measured after 4 hrs by RIA relative to vehicle-treated control. The format is functional. The conditions noted are these: CD-1, ip, route intraperitoneal.
Series [4] can be described thus: Metabolic stability in Sprague-Dawley rat liver microsomes assessed as compound remaining at 10 uM after 60 mins by HPLC analysis. Type of series: ADME. The following applies: read-out: Stability.
The target of series [5] is Mitogen-activated protein kinase 1 (Homo sapiens) (UniProt P28482). Kind of series: Inhibition of fMLP-mediated ERK2 phosphorylation in human polymorphonuclear leukocytes incubated for 15 mins prior to fMLP-challenge measured after 1.5 mins by SDS-PAGE analysis. Type of series: cell-based.
Sequence of Mitogen-activated protein kinase 1 (Homo sapiens) (P28482 whole entry): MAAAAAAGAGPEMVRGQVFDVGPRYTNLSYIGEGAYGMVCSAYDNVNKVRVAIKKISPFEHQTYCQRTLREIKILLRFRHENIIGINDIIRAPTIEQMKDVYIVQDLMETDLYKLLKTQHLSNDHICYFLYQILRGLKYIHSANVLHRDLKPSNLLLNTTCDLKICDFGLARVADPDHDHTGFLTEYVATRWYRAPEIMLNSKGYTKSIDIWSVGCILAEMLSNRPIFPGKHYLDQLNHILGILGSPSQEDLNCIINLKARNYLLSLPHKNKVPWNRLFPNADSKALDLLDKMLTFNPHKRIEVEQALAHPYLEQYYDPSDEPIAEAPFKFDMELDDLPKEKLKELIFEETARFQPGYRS
Series [6] deals with Mus musculus. Briefly: Antiinflammatory activity in CD-1 mouse peritonitis model assessed as reduction in myeloperoxidase activity at 10 mg/kg, ip administered 30 mins prior to zymosan-challenge measured after 4 hrs by spectrophotometry relative to vehicle-treated control. The format is functional. The following applies: CD-1, ip, route intraperitoneal.
Series [7] addresses T2, Prostaglandin E synthase (Homo sapiens, UniProt O14684).
T2 sequence (O14684 whole entry): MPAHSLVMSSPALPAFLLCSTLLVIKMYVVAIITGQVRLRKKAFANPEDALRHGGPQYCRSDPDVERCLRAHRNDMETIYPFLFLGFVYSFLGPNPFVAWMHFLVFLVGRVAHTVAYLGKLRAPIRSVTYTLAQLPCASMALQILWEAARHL
Kind of series: Inhibition of mPGES-1 from human A549 cell microsomal membranes using PGH2 as substrate incubated 15 mins prior to substrate addition measured after 1 min by RP-HPLC analysis.

The target in series [8] is MAP kinase p38 (Homo sapiens) (UniProt O15264+Q15759+Q16539+P53778). Briefly: Inhibition of fMLP-mediated p38 MAPK phosphorylation in human polymorphonuclear leukocytes incubated for 15 mins prior to fMLP-challenge measured after 1.5 mins by SDS-PAGE analysis. The format is cell-based.
Series [9] deals with Radical scavenging activity. Briefly: Antioxidant activity assessed as DPPH radical scavenging activity at 10 uM after 30 mins. Type of series: functional. For orientation: Loss of DPPH colour is used to gauge radical scavenging.
The test system of series [10] is Mus musculus. Kind of series: Reduction of LTC4 formation in CD-1 mouse peritonitis model at 10 mg/kg, ip administered 30 mins prior to zymosan-challenge measured after 30 mins by EIA relative to vehicle-treated control. The format is functional. The conditions noted are these: CD-1, ip, route intraperitoneal.
Series [11] deals with T3, Prostaglandin G/H synthase 2 (Homo sapiens) (UniProt P35354).
T3 sequence (whole entry): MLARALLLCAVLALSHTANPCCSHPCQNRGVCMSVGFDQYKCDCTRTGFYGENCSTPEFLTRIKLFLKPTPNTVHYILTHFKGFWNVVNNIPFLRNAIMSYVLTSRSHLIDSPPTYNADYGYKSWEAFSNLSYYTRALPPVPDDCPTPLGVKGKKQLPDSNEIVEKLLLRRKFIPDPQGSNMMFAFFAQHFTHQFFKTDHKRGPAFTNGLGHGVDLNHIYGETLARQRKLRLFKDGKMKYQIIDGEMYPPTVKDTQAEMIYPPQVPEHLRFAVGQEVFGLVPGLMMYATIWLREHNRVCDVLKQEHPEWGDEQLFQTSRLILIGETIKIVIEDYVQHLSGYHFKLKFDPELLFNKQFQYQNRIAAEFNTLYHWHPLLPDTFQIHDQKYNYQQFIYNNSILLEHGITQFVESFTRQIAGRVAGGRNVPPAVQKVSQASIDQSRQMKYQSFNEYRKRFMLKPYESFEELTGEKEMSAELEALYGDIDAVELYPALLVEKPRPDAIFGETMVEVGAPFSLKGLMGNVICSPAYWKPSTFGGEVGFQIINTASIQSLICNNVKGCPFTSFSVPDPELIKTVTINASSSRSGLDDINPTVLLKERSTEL
The following applies: at 10 µM.
Description: Inhibition of human recombinant COX2 using arachidonic acid as substrate at 10 uM incubated 5 mins prior to substrate addition measured after 5 mins by HPLC analysis

pIC50: −log10 of the molar value. Calls of active or inactive are those of the source. The calls are words filed in the database; no cut-off is given here.

As usually defined, the inhibition in vivo is the percentage by which the read-out fell short of the control. Usually inhibition stands for the change of the read-out against control, counted positive when it falls. The term pIC50 denotes −log10 of the IC50, conventionally taken in molar units. A high value points to a small IC50.

For `CCCCCCC(Sc1nc(Cl)cc(Nc2nc(-c3ccc4ccccc4c3)cs2)n1)C(=O)O` (racemic), the inhibition in vivo at 10 mg/kg was 45% in [1], 46% in [3], 23% in series [6] and 84% in [10]. The Activity in series [2] worked out at 168%. Moreover, the remaining at 1 h, 10 µM in series [4] stood at 77%. The inhibition result in [5] and in series [8] was “inactive” throughout. For the same molecule, the pIC50 in [7] is 6.40. For the same molecule, in [9], the outcome was inactive. The molecule further had an inhibition in series [11] of 18%.
